Measurements reported in ChEMBL document CHEMBL3856262, “A diastereoselective synthesis of tetrahydro- and dihydro-pyrido[2,3-c]coumarin derivatives via a one-pot three-component Povarov reaction catalyzed by bismuth(III) chloride” (2016).
≈ marks a conversion by molar mass, not a printed value.

What was measured:
Type in all cases: functional
Micrococcus luteus = assay: Antimicrobial activity against Micrococcus luteus MTCC 2470 incubated for 24 hrs by well diffusion assay; settings: MTCC 2470, 24 h
Staphylococcus aureus [1] = assay: Antimicrobial activity against Staphylococcus aureus MTCC 96 incubated for 24 hrs by well diffusion assay; settings: MTCC 96, 24 h
Staphylococcus aureus [2] = assay: Antimicrobial activity against Staphylococcus aureus MLS-16 […] incubated for 24 hrs by well diffusion assay
Bacillus subtilis = assay: Antimicrobial activity against Bacillus subtilis MTCC 121 incubated for 24 hrs by well diffusion assay; settings: MTCC 121, 24 h
Escherichia coli = assay: Antimicrobial activity against Escherichia coli MTCC 739 incubated for 24 hrs by well diffusion assay; settings: MTCC 739, 24 h
Pseudomonas aeruginosa = assay: Antimicrobial activity against Pseudomonas aeruginosa MTCC 2453 incubated for 24 hrs by well diffusion assay; settings: MTCC 2453, 24 h
Raoultella planticola = assay: Antimicrobial activity against Klebsiella planticola MTCC 530 incubated for 24 hrs by well diffusion assay; settings: MTCC 530, 24 h
Candida albicans = assay: Antimicrobial activity against Candida albicans MTCC 3017 incubated for 24 hrs by well diffusion assay; settings: MTCC 3017, 24 h
[3] = Antioxidant activity assessed as DPPH radical scavenging activity at 1 mM incubated for 40 mins in dark condition
[4] = Antioxidant activity assessed as DPPH radical scavenging activity at 2 mM incubated for 40 mins in dark condition
[5] = Antioxidant activity assessed as DPPH radical scavenging activity at 0.5 mM incubated for 40 mins in dark condition

Row | Structure (SMILES) | MIC (Micrococcus luteus) | MIC (Staphylococcus aureus [1]) | MIC (Staphylococcus aureus [2]) | MIC (Bacillus subtilis) | MIC (Escherichia coli) | MIC (Pseudomonas aeruginosa) | MIC (Raoultella planticola) | MIC (Candida albicans) | Activity [3] | Activity [4] | Activity [5]
1 | CC(C)OC(=O)N1c2c(c(=O)oc3ccccc23)N[C@H](c2ccc(C#N)cc2)N1C(=O)OC(C)C | > 100 µg/mL | > 100 µg/mL | > 100 µg/mL | > 100 µg/mL | > 100 µg/mL | > 100 µg/mL | > 100 µg/mL | > 100 µg/mL | 0.88% | 3.14% | 
2 | O=c1oc2ccccc2c2c1N[C@H](c1ccc(F)cc1)[C@H]1CCCO[C@@H]21 | > 100 µg/mL | > 100 µg/mL | > 100 µg/mL | > 100 µg/mL | > 100 µg/mL | > 100 µg/mL | > 100 µg/mL | > 100 µg/mL |  |  | 
3 | CC(C)OC(=O)N1c2c(c(=O)oc3ccccc23)N[C@H](c2ccc(O)c(Cl)c2)N1C(=O)OC(C)C | > 100 µg/mL | > 100 µg/mL | > 100 µg/mL | > 100 µg/mL | > 100 µg/mL | > 100 µg/mL | > 100 µg/mL | > 100 µg/mL | 21% | 31.1% | 10.8%
4 | CC(C)OC(=O)N1c2c(c(=O)oc3ccccc23)N[C@H](c2ccc(C(F)(F)F)cc2)N1C(=O)OC(C)C | > 100 µg/mL | > 100 µg/mL | > 100 µg/mL | > 100 µg/mL | > 100 µg/mL | > 100 µg/mL | > 100 µg/mL | > 100 µg/mL | 1.06% | 6.8% | 
5 | Cc1c(C)c2c(c(C)c1O)CC[C@@](C)(CCC[C@H](C)CCC[C@H](C)CCCC(C)C)O2 |  |  |  |  |  |  |  |  | 81.7% | 86.4% | 47.7%
6 | O=c1oc2ccccc2c2c1N[C@H](c1ccc([N+](=O)[O-])cc1)[C@H]1CCCO[C@@H]21 | > 100 µg/mL | > 100 µg/mL | > 100 µg/mL | > 100 µg/mL | > 100 µg/mL | > 100 µg/mL | > 100 µg/mL | > 100 µg/mL |  |  | 
7 | COc1cc(OC)cc([C@@H]2C[C@@H](c3ccc4ccccc4c3)c3c(c(=O)oc4ccccc34)N2)c1 | > 100 µg/mL | > 100 µg/mL | > 100 µg/mL | > 100 µg/mL | > 100 µg/mL | > 100 µg/mL | > 100 µg/mL | > 100 µg/mL |  |  | 
8 | CCOC(=O)C1=C(C(=O)OCC)[C@@H](c2ccc(O)c(Cl)c2)Nc2c1c1ccccc1oc2=O | > 100 µg/mL | > 100 µg/mL | > 100 µg/mL | > 100 µg/mL | > 100 µg/mL | > 100 µg/mL | > 100 µg/mL | > 100 µg/mL | 5.79% | 11% | 4.84%
9 | Clc1ccc(COC(Cn2ccnc2)c2ccc(Cl)cc2Cl)c(Cl)c1 (stereo not given) [MICONAZOLE] |  |  |  |  |  |  |  | 9.37 µg/mL (≈ 22.5 µM) |  |  | 
10 | CCOC(=O)C1=C(C(=O)OCC)[C@@H](c2cc(O)ccc2O)Nc2c1c1ccccc1oc2=O | > 100 µg/mL | > 100 µg/mL | > 100 µg/mL | > 100 µg/mL | > 100 µg/mL | > 100 µg/mL | > 100 µg/mL | > 100 µg/mL | 3.88% | 7.42% | 2.43%
11 | Cc1cc(C(C)(C)C)c(O)c(C(C)(C)C)c1 |  |  |  |  |  |  |  |  | 68.5% | 78.5% | 39.8%
12 | O=c1oc2ccccc2c2c1N[C@H](c1ccc(Cl)cc1)C[C@H]2c1ccc2ccccc2c1 | > 100 µg/mL | > 100 µg/mL | > 100 µg/mL | > 100 µg/mL | > 100 µg/mL | > 100 µg/mL | > 100 µg/mL | > 100 µg/mL |  |  | 
13 | CCOC(=O)C1=C(C(=O)OCC)[C@@H](c2cc(OC)ccc2O)Nc2c1c1ccccc1oc2=O | > 100 µg/mL | > 100 µg/mL | > 100 µg/mL | > 100 µg/mL | > 100 µg/mL | > 100 µg/mL | > 100 µg/mL | > 100 µg/mL | 20.1% | 32.1% | 9.58%
14 | CC(C)OC(=O)N1c2c(c(=O)oc3ccccc23)N[C@H](c2ccc([N+](=O)[O-])cc2)N1C(=O)OC(C)C | > 100 µg/mL | > 100 µg/mL | > 100 µg/mL | > 100 µg/mL | > 100 µg/mL | > 100 µg/mL | > 100 µg/mL | > 100 µg/mL | 7.06% | 14.6% | 3.27%
15 | O=c1oc2ccccc2c2c1N[C@H](c1ccccc1)[C@H]1CCCO[C@@H]21 | > 100 µg/mL | > 100 µg/mL | > 100 µg/mL | > 100 µg/mL | > 100 µg/mL | > 100 µg/mL | > 100 µg/mL | > 100 µg/mL |  |  | 
16 | Nc1cc2ccccc2oc1=O | > 100 µg/mL | > 100 µg/mL | > 100 µg/mL | > 100 µg/mL | > 100 µg/mL | > 100 µg/mL | > 100 µg/mL | > 100 µg/mL | 2.77% | 6.08% | 
17 | O=c1oc2ccccc2c2c1N[C@H](c1ccc(Cl)cc1)[C@H]1CCCO[C@@H]21 | > 100 µg/mL | > 100 µg/mL | > 100 µg/mL | > 100 µg/mL | > 100 µg/mL | > 100 µg/mL | > 100 µg/mL | > 100 µg/mL |  |  | 
18 | O=C(O)c1cn(C2CC2)c2cc(N3CCNCC3)c(F)cc2c1=O [CIPROFLOXACIN] | 0.58 µg/mL (≈ 1.75 µM) | 0.58 µg/mL (≈ 1.75 µM) | 0.58 µg/mL (≈ 1.75 µM) | 0.58 µg/mL (≈ 1.75 µM) | 0.58 µg/mL (≈ 1.75 µM) | 0.58 µg/mL (≈ 1.75 µM) | 0.58 µg/mL (≈ 1.75 µM) |  |  |  | 
19 | CCOc1ccc([C@H]2Nc3c(c4ccccc4oc3=O)[C@@H]3OCCC[C@H]23)cc1 | > 100 µg/mL | > 100 µg/mL | > 100 µg/mL | > 100 µg/mL | > 100 µg/mL | > 100 µg/mL | > 100 µg/mL | > 100 µg/mL |  |  | 
